Measured values published in ChEMBL document CHEMBL5291721, “A preclinical secondary pharmacology resource illuminates target-adverse drug reaction associations of marketed drugs” (Nat Commun, 2023).

Key:
Histamine H1 receptor = Histamine H1 receptor (Homo sapiens, UniProt P35367); type: functional, cell-based
[1] = biological target: T1, Muscarinic acetylcholine receptor M1 (Homo sapiens, UniProt P11229)
T1 sequence (P11229 whole entry): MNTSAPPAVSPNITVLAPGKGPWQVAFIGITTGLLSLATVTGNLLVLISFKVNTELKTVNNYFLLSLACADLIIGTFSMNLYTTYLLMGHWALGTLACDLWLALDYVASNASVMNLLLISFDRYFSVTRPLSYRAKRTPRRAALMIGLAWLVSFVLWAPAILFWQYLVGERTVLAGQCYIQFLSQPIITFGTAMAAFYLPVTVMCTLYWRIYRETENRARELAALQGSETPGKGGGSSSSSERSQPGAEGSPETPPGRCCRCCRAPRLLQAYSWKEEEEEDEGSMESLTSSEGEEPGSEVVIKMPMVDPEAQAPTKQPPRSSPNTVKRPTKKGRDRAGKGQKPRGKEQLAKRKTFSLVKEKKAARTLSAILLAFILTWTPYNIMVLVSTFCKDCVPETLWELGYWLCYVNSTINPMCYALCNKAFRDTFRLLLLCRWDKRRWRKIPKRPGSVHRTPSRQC
Also: assay procedure not described here.

Histamine H1 receptor, sequence (P35367 whole entry): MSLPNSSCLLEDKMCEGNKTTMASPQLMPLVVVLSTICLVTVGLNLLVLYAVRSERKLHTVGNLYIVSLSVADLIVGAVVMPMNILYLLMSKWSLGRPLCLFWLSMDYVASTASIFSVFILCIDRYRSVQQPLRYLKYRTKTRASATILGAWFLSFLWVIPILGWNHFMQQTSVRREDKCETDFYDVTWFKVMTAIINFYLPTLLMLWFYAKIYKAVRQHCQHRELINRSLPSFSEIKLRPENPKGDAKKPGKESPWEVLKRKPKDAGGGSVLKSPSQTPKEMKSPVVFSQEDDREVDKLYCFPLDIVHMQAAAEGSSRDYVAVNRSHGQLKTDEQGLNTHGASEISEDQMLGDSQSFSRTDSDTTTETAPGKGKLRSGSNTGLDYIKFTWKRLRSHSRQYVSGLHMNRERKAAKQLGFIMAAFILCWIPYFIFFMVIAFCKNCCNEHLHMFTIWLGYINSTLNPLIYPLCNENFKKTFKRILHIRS

OC[C@H]1O[C@@](CO)(O[C@H]2O[C@H](CO)[C@@H](O)[C@H](O)[C@H]2O)[C@@H](O)[C@@H]1O [SUCROSE] was tested, and the AC50 (Histamine H1 receptor) was over 30 µM and the AC50 [1] was over 30 µM.
CC(C)(O)CNc1nc(Nc2ccnc(C(F)(F)F)c2)nc(-c2cccc(C(F)(F)F)n2)n1 [ENASIDENIB] was tested, and the AC50 [1] was over 30 µM.
